The values below come from article PMC11592675, “Förster Resonance Energy Transfer Measurements in Living Bacteria for Interaction Studies of BamA with BamD and Inhibitor Identification” (Cells, 2024).

“And” between values parts separate entries of the source, which are not always exact repeats. Identical values can stand only once. “Also recorded” adds a separate entry of the source.

Data set [1] concerns gram-negative bacteria. The note with it: in vitro; cited from earlier work. The text has this: (§1) Resistance against known antibiotics is progressively spreading. Therefore, new antibacterial entities are urgently needed. […] The β-barrel assembly ...
Data set [2] relates to interaction between BamA and BamD. As to conditions: yeast two hybrid high throughput screening; cited from earlier work.
Excerpt: as §1

In data set [3] the test system is BamA. As to conditions: no specific interaction site known; cited from earlier work. The text has this:
Resistance against known antibiotics is progressively spreading. Therefore, new antibacterial entities are urgently needed. According to the WHO, new antibiotics against gram-negative bacteria are in particular need. Common mechanisms of antibiotic resistance in gram-negative bacteria include changes in membrane and cell-wall permeability, biofilm formation, the production of efflux pumps and beta-lactamases, as well as mutation of typical targets. […] The β-barrel assembly ...

The subject of data set [4] is outer membrane. The note with it: cited from earlier work. The text has this: Resistance against known antibiotics is progressively spreading. Therefore, new antibacterial entities are urgently needed. […] The β-barrel assembly ... || The interaction between BamA and BamD is essential for the correct function of the BAM complex. BamE has been reported to stabilize the interaction between BamA and BamD [29]. In this work, BamE was not overexpressed alongside the fluorophore-labeled BamA and BamD fusion proteins. It is therefore unclear to what extent chromosomal-encoded BamE stabilized the complex between fluorophore-labelled BamA and BamD. It is also possible that the interaction measured between BamA and BamD was not affected by BamE at all, due to the low amount of BamE present in comparison to the plas ...

Data set [5] deals with BamA–BamD interaction. Kind of data set: FRET-based determination of apparent affinity of BamA, BamD and their variants / FRET pairs in living E. coli cells. The note with it: BamA-mNeonGreen–BamD-mScarlet-I, n = 5 biological replicates (Figure 3c). The format is cell-based. The text has this: E. coli Stellar (F−, endA1, supE44, thi-1, recA1, relA1, gyrA96, phoA, Φ80d lacZΔ M15, Δ(lacZYA-argF) U169, Δ(mrr-hsdRMS-mcrBC), ΔmcrA, λ−) was used for plasmid construction. E. coli BL21 (B, F^−, gal, dcm, Ion, hsdSB(rB^− mB^−), [malB^+]K-12(λ^S)) was used for expression of all fusion proteins and subsequent flow cytometric analysis. Plasmids were constructed by ligation free cloning using the InFusion™ cloning kit (Clonetech, San Jose, CA, USA) according to the manufacturer’s instructions, based on plasmid backbones described earlier. Details on the determinants and the construction of each of the used plasmids is given in the Supplementary Information (Supplementary Table S1 and Supplementary Text S1). Oligonucleotides used in their constructions are listed in Supplementary Table S2. Single-point mutations were introduced with the InFusion™ cloning kit. Oligonucleotides used are listed in Supplementary Table S2.
(§2) At the start of each experiment, E. coli BL21 cells were transformed with the corresponding plasmids, spread onto lysogeny broth-miller (LB)-agar plates with 50 µg/mL kanamycin (≥750 I.U./mg) or carbenicillin (purity: ≥88%) and grown over night. It turned out to be crucial to use freshly transformed cells for each experiment. Keeping the cells on agar plates for more than two days or cryoconservation of the cells led to an increase in the variability of the determined parameters Ka^app., z and Fmax. The following day, after transformation of the cells, 1 mL of LB medium with 50 µg/mL of the corresponding antibiotic in a 48-well plate was inoculated with a single colony and cultivated overnight (16 h) at 37 °C and 200 rpm. For protein production, M9 mineral medium was used, in which glucose was substituted by 1% (m/m) glycerol (purity: ≥99%) as the carbon source. A quantity of 200 µL of M9 medium in a 96-well plate was inoculated with 2 µL of the overnight culture and cultivated at 28 °C and 200 rpm for 6 h. Then, gene expression was induced with 1 mM L-rhamnose (purity: ≥98%), and afterwards an additional 2 h of cultivation with 0.2% (m/V) arabinose (purity: ≥99%). Cells that carried a plasmid that only contained one promotor were only treated with the corresponding inductor. Following induction of gene expression, cells were cultivated for an additional 16 h at 28 °C and 200 rpm. Cells were subsequently washed with PBS three times and then directly analyzed by flow cytometry.
(§3) A FACS Aria III flow cytometer (BD Bioscience, Franklin Lages, NJ, USA) with a 70 microns nozzle was used to analyze all cells. A three-channel method was used to measure the donor channel (mNeonGreeen), the acceptor channel (mScarlet-I) and the FRET channel. To measure the mNeonGreen fluorescence, an excitation wavelength of 488 nm and emission wavelength filters of 530/30 nm (band-pass) and 502 nm (long-pass) were used. mScarlet-I fluorescence was excited at 561 nm and measured with emission wavelength filters of 610/20 nm (band-pass) and 600 nm (long-pass). The FRET channel was measured with an excitation wavelength of 488 nm and emission filters of 610/20 nm (band-pass) and 600 nm (long-pass). A maximum of 10,000 cells per second were analyzed. FACSDiva™ Software (BD Bioscience, Franklin Lages, NJ, USA, version 8.0) was used for gating data analysis. For cells only expressing one fluorophore, 50,000 cells per sample were analyzed. […] A total of 50,000 cells inside the Q2 gate were analyzed. Examples are shown in Supplementary Figure S2. Cells at the edge of the plot were excluded during calculation of DFRET values and relative donor/acceptor concentrations.
Data points of all cells inside the analysis gate (Q2), as described in 2.4, were exported as FCS files using FACSDiva™ Software (BD Bioscience, Franklin Lages, NJ, USA, version 8.0). A custom Python program employing the FlowKit was subsequently used to convert the FCS formatted data into tab-delimited txt format. […]

In data set [6] the target is mNeonGreen-BamA (N-terminal fusion of mNeonGreen to BamA) (E. coli) (UniProt P0A940). Kind of data set: FRET or BRET; flow cytometry (three channels) of living E. coli BL21 co-expressing the mNeonGreen (donor) and mScarlet-I (acceptor) fusions from one plasmid; cells washed with PBS; binding model (law of mass action) fitted to DFRET and relative concentrations with Ka app, z and Fmax all as free parameters; apparent; five replicates on each of three days. In general terms: Bioluminescence resonance energy transfer reports proximity on the nanometre scale.

Data set [7] has as its target BamA-mNeonGreen (C-terminal fusion of mNeonGreen to BamA) (E. coli) (UniProt P0A940). Described as above.
The test system of data set [8] is interaction between BamA and BamD (BamA-mNeonGreen and BamD-mScarlet-I). Description: FRET-based BamA–BamD interaction assay in living E. coli cells (flow cytometry), peptide treatment. The note with it: for Ka^app. of the BamA–BamD interaction after peptide treatment: cells incubated 3 h in water, z and Fmax kept constant, n = 5 biological replicates, untreated control in the RFIRLN experiment Ka^app. = 3.08 × 10^−4; for inhibition of the interaction between BamA and BamD (in words): living bacterial cells, 500 µM and 2.5 mM peptide, 3 h in water. Format: cell-based. The procedure: as §2, §3
Data points of all cells inside the analysis gate (Q2), as described in 2.4, were exported as FCS files using FACSDiva™ Software (BD Bioscience, Franklin Lages, NJ, USA, version 8.0). A custom Python program employing the FlowKit was subsequently used to convert the FCS formatted data into tab-delimited txt format.
Calculation of the DFRET and calculation of the relative concentration of the acceptor and donor from the flow cytometric data were performed as described by Hochreiter et al.. Cells with an RFU ≥ 250,000 were excluded from further analysis. Fitting of a binding model based on the law of mass actions to the data was also performed as described by Hochreiter et al.. The binding model used here (Equation (1)) fits the affinity (Ka^app), the stoichiometry (z) and the maximum FRET (Fmax) of a complex. To do so, the relative donor and acceptor concentration, as well as the DFRET, of a large number of cells with different expression levels has to be known. All other equations used for the calculations are described in Supplementary Text S1 for clarity. The FRET-efficiency of the donor- acceptor tandem, needed for the calculations, was determined by spectral unmixing according to Alexeeva et al. to be 0.43 [42]. […]

The subject of data set [9] is bacterial growth. Kind of data set: inhibition of bacterial growth by the peptides. The format is cell-based, E. coli. The note with it: up to a concentration of 2.5 mM.
For data set [10] the following is noted: M9 medium or PBS; not soluble at concentrations above 1 mM. The procedure:
Peptides (RFIRLN and […]) were synthesized by Genicbio with a purity of >95%. For treatment with the peptides, cells were grown as described above. […] Cells not treated with the peptide were also incubated in water for 3 h and used as a control for all experiments involving the peptides.

In data set [11] the test system is Pseudomonas aeruginosa. As to conditions: cited from earlier work. The text has this: Mori et al. identified a peptide sequence (FIRL) that was highly conserved across BamD homologues in a wide variety of gram-negative bacteria. […] When the peptide was identified by Mori et al., no crystal structure of the BAM complex was available. When we located the amino acids of the FIRL peptide in the crystal structure of BamD, it turned out that only two of the four amino acids, R97 and L98, appeared to interact with BamA at site 2 (Figure 3c). The sidec ... || The interaction between BamA and BamD is essential for the correct function of the BAM complex. BamE has been reported to stabilize the interaction between BamA and BamD [29]. In this work, BamE was not overexpressed alongside the fluorophore-labeled BamA and BamD fusion proteins. It is therefore unclear to what extent chromosomal-encoded BamE stabilized the complex between fluorophore-labelled BamA and BamD. It is also possible that the interaction measured between BamA and BamD was not affected by BamE at all, due to the low amount of BamE present in comparison to the plas ...

The mark [12] stands for this setting: interaction site 1 variants, z and Fmax constant.
Setting [13] is: interaction site 2 variants, z = 1, Fmax = 0.36 constant.

`COC(=O)c1c(NC(=O)c2ccc([N+](=O)[O-])o2)sc2c1CCN(C(C)C)C2` [IMB-H4]: in [1], the antibacterial activity result is “showed antibacterial activity in vitro”. The “inhibition of the interaction between BamA and BamD” value in data set [2] was “shown to inhibit the interaction between BamA and BamD”. The “binding to BamA” value in data set [3] is on record as “binds to BamA”. Moreover, in data set [4], the “permeabilization of the OM” value was “shown to permeabilize the OM”. Consider BamD^Y184F: BamD variant, for which, in [5] (setting [12]), the “Ka^app.” value is 6.22 × 10^−5. The same measure, in the same setting: the result for V181A: BamD variant reads 6.66 × 10^−5.

What is called stoichiometry N is a count of units in the complex or per binding partner. On to “BamD-mScarlet-I (C-terminal fusion of mScarlet-I to BamD) (from UniProt P0AC02 20-245) (natural protein)”, for which the stoichiometry N in data set [6] is 0.7 and 1.1; in data set [7], 1.3 and 1.6 and 1.2. Turning to VAEYYTER, the “Ka^app. of the BamA–BamD interaction after peptide treatment” value in [8] (500 µM peptide) is recorded as 1.75 × 10^−4; in data set [8] (2.5 mM peptide), 1.03 × 10^−4. Besides, the “inhibition of the interaction between BamA and BamD (in words)” value in data set [8] was “inhibit the interaction between BamA and BamD in a dose-dependent manner in the upper micromolar range; also recorded: a clear dose-dependent effect was observed; also recorded: able to disrupt the binding of BamD to BamA in living cells in high micromolar concentrations”. The “inhibition of bacterial growth” value in data set [9] is listed as “no inhibition of bacterial growth was detected up to a concentration of 2.5 mM”. A word on the solubility: it is how much of the substance goes into solution per volume. In the case of RFIRLN, the “Ka^app. of the BamA–BamD interaction after peptide treatment” value was 1.95 × 10^−4 in data set [8] (500 µM peptide) and 7.48 × 10^−5 in data set [8] (2.5 mM peptide). In addition, the “inhibition of the interaction between BamA and BamD (in words)” value in [8] is “inhibit the interaction between BamA and BamD in a dose-dependent manner in the upper micromolar range; also recorded: a clear dose-dependent effect was observed; also recorded: shown to inhibit binding of BamA to BamD in living cells”. Further, in [9], the “inhibition of bacterial growth” value is listed as “no inhibition of bacterial growth was detected up to a concentration of 2.5 mM”. This compound also showed a solubility in [10] of no more than 1000 µM.

As to BamD^R97A: BamD variant, the “Ka^app.” value in data set [5] (setting [13]) is 6.23 × 10^−5. Consider BamD^L98A: BamD variant, for which, in [5] (setting [13]), the “Ka^app.” value is given as 6.58 × 10^−5. As to BamD^Y184A: BamD variant, the “Ka^app.” value in data set [5] (setting [12]) was 5.27 × 10^−5. The same measure, in the same setting: the result for BamD^E187A: BamD variant reads 7.82 × 10^−5. Consider BamD^N99A: BamD variant, for which the “Ka^app.” value in [5] (setting [13]) is recorded as 6.57 × 10^−5. As to “BamD^Y185A: BamD variant, Y185 mutated to alanine”, the “Ka^app.” value in data set [5] (setting [12]) was 6.22 × 10^−5. In the case of “FIRL [peptide derived from BamD, Mori et al]”, the “effect on outer membrane integrity / membrane permeability” value in data set [4] is on record as “cause membrane permeability in treated cells; also recorded: shown to interfere with outer membrane integrity”. In addition, in data set [11], the “bacteriostatic or bactericidal effects” value is “did not show any bacteriostatic or bactericidal effects” and the potentiation of antibiotics result is reported as “potentiated the effect of antibiotics; also recorded: potentiate the activity of antibiotics”. For the compound BamD^R94A: BamD variant, in data set [5] (setting [13]), the “Ka^app.” value is listed as 5.47 × 10^−5.

As to E183A: BamD variant, in [5] (setting [12]), the “Ka^app.” value is on record as 7.2 × 10^−5.
